From PubChem BioAssay AID504422 (Sanford-Burnham Center for Chemical Genomics, 2011)
The source made the active and inactive calls. How the calls were made is not given here.

Tested on: human hepatocytes, lipid droplet formation imaging
Experiment: inhibitors of hepatocyte lipid droplet formation, SAR follow-up, imaging, human hepatocytes (AID 504422)

With `CCOc1cc(CCNC(=O)COc2cc(=O)n(C)c3ccccc23)ccc1OC` the IC50 was > 10 µM (inactive).

`CCOc1ccc(CCNC(=O)c2cc3sccc3[nH]2)cc1OCC` was tested, and the IC50 was > 10 µM (inactive).

`CCOc1ccc(CCNC(=O)c2cc3sc(Cl)cc3n2C)cc1OCC` was tested, and the IC50 was > 10 µM (inactive).

`Cn1c(C(=O)NCc2ccc3c(c2)OCO3)cc2ccsc21` was tested, and the IC50 was > 10 µM (inactive).

In the case of `CCOc1ccc(CCNC(=O)c2cc3ccsc3n2C)cc1OC`, the IC50 was > 10 µM (inactive).

In the case of `Cn1c(C(=O)Nc2ccc3c(c2)OCO3)cc2ccsc21`, the IC50 was > 10 µM (inactive).

`CCOc1ccc(CCNC(=O)c2ccc(N3CCOCC3)s2)cc1OCC` was tested, and the IC50 was > 10 µM (inactive).

`COc1ccc(CCNC(=O)c2cc(-c3ccccc3)c(N3CCOCC3)s2)c(OC)c1OC` was tested, and the IC50 was > 10 µM (inactive).

For `Cn1c(C(=O)NCCc2ccc3c(c2)OCO3)cc2ccccc21`, the IC50 was > 10 µM (inactive).

`CCOc1ccc(CCNC(=O)Cn2cccc2C(=O)c2ccccc2C)cc1OCC` was tested, and the IC50 was > 10 µM (inactive).

`CCn1c(C(=O)NCc2cc(OC)c(OC)c(OC)c2)cc2sccc21` was tested, and the IC50 was > 10 µM (inactive).

In the case of `Cn1c(=O)cc(SCC(=O)Nc2ccc3c(c2)OCO3)c2ccccc21`, the IC50 was > 10 µM (inactive).

For `CCOc1ccc(CCNC(=O)CCOc2cc(C)ccc2C)cc1OCC`, the IC50 was > 10 µM (inactive).

`CCOc1ccc(CCNC(=O)c2cc3ccccc3n2C)cc1OC` was tested, and the IC50 was > 10 µM (inactive).

In the case of `COc1ccc(CNC(=O)c2ccc(N3CCOCC3)s2)cc1OC`, the IC50 was > 10 µM (inactive).

In the case of `CCOc1cc(CCNC(=O)c2cc3ccsc3n2C)ccc1OC`, the IC50 was > 10 µM (inactive).

With `CCn1c(C(=O)NCCc2ccc(OC)c(OC)c2)cc2sc(Cl)cc21` the IC50 was > 10 µM (inactive).

For `CCn1c(C(=O)NCc2ccc(OC)c(OC)c2)cc2ccsc21`, the IC50 was > 10 µM (inactive).

For `CCOc1ccc(CCNC(=O)c2cc3ccsc3n2CC)cc1OCC`, the IC50 was > 10 µM (inactive).

With `COc1ccc(CCNC(=O)Cn2cccc2C(=O)c2ccccc2C)cc1OC` the IC50 was > 10 µM (inactive).

In the case of `COc1ccc(CNC(=O)c2cc(-c3ccccc3)c(N3CCOCC3)s2)cc1OC`, the IC50 was > 10 µM (inactive).

For `CCOc1ccc(CCNC(=O)c2cc(-c3ccccc3)c(N3CCOCC3)s2)cc1OCC`, the IC50 was > 10 µM (inactive).

In the case of `CCOc1ccc(CCNC(=O)c2nnc(Cc3ccc(F)cc3)o2)cc1OCC`, the IC50 was > 10 µM (inactive).

`O=C(NCCc1ccc2c(c1)OCO2)c1ccc(N2CCOCC2)s1` was tested, and the IC50 was > 10 µM (inactive).

For `COc1ccc(CNC(=O)CSc2cc(=O)n(C)c3ccccc23)cc1OC`, the IC50 was > 10 µM (inactive).

With `COc1cc(CNC(=O)c2cc3ccsc3n2C)cc(OC)c1OC` the IC50 was > 10 µM (inactive).

`Cn1c(=O)cc(SCC(=O)NCCc2ccc3c(c2)OCO3)c2ccccc21` was tested, and the IC50 was > 10 µM (inactive).

With `CCOc1ccc(CCNC(=O)CSc2cc(=O)n(CC)c3ccccc23)cc1OCC` the IC50 was > 10 µM (inactive).

In the case of `CCn1c(C(=O)NCc2cc(OC)c(OC)c(OC)c2)cc2ccsc21`, the IC50 was > 10 µM (inactive).

In the case of `CCOc1ccc(CCNC(=O)C2CC=CCC2C(=O)OC(C)C)cc1OCC` (stereo not drawn), the IC50 was > 10 µM (inactive).

In the case of `CCOc1ccc(CCNC(=O)CCc2nnc3ccc(N4CCCCC4)nn23)cc1OCC`, the IC50 was > 10 µM (inactive).

In the case of `CCOc1ccc(CCNC(=O)Cn2cccc2C(=O)c2ccccc2)cc1OCC`, the IC50 was > 10 µM (inactive).

With `CCOc1ccc(CCNC(=O)c2cc3ccsc3n2CC)cc1OC` the IC50 was > 10 µM (inactive).

For `CCOc1ccc(CCNC(=O)COc2cc(=O)n(C)c3ccccc23)cc1OCC`, the IC50 was > 10 µM (inactive).

With `COc1ccc(CCNC(=O)CSc2cc(=O)n(C)c3ccccc23)cc1OC` the IC50 was > 10 µM (inactive).

With `COc1ccc(CCNC(=O)c2cc3ccccc3n2C)cc1OC` the IC50 was > 10 µM (inactive).

For `CCOc1ccc(CCNC(=O)Cn2ncn3nc(-c4ccc(OC)cc4)cc3c2=O)cc1OCC`, the IC50 was > 10 µM (inactive).

`COc1ccc(CCNC(=O)COC(=O)c2cc(OC)c(OC)cc2OC)cc1OC` was tested, and the IC50 was > 10 µM (inactive).

With `COc1ccc(CNC(=O)c2cc3ccsc3n2C)cc1OC` the IC50 was > 10 µM (inactive).

For `CCOc1cc(CCNC(=O)c2cc3ccccc3n2C)ccc1OC`, the IC50 was > 10 µM (inactive).

In the case of `O=C(NCCc1ccc2c(c1)OCO2)c1cc2sccc2[nH]1`, the IC50 was > 10 µM (inactive).

For `COc1ccc(NC(=O)c2cc3ccsc3n2C)cc1OC`, the IC50 was > 10 µM (inactive).

In the case of `CCOc1ccc(CCNC(=O)COC(=O)c2cc(OC)c(OC)c(OC)c2)cc1OCC`, the IC50 was > 10 µM (inactive).

For `CCOc1cc(CCNC(=O)CSc2cc(=O)n(C)c3ccccc23)ccc1OC`, the IC50 was > 10 µM (inactive).

For `CCOc1ccc(CCNC(=O)CN2CCN(Cc3ccccc3C)C2=O)cc1OCC`, the IC50 was > 10 µM (inactive).

With `CCOc1cc(CCNC(=O)c2cc3sccc3n2CC)ccc1OC` the IC50 was > 10 µM (inactive).

For `CCOc1ccc(CCNC(=O)c2cc3sccc3n2C)cc1OCC`, the IC50 was > 10 µM (inactive).

In the case of `CCOc1cc(CCNC(=O)c2cc3sccc3[nH]2)ccc1OC`, the IC50 was > 10 µM (inactive).

For `COc1ccc(CCNC(=O)c2cc3sc(Cl)cc3n2C)cc1OC`, the IC50 was > 10 µM (inactive).

`COc1ccc(CCNC(=O)c2cc(-c3ccccc3)c(N3CCOCC3)s2)cc1OC` was tested, and the IC50 was > 10 µM (inactive).

`CCOc1ccc(CCNC(=O)CCC(=O)N2CCOc3ccccc32)cc1OCC` was tested, and the IC50 was > 10 µM (inactive).

With `CCOc1cc(CCNC(=O)c2ccc(N3CCOCC3)s2)ccc1OC` the IC50 was > 10 µM (inactive).

In the case of `CCn1c(C(=O)Nc2ccc3c(c2)OCO3)cc2ccsc21`, the IC50 was > 10 µM (inactive).

With `CCOc1ccc(CCNC(=O)CSc2cc(=O)n(C)c3ccccc23)cc1OCC` the IC50 was > 10 µM (inactive).

In the case of `COc1cc(CNC(=O)CSc2cc(=O)n(C)c3ccccc23)cc(OC)c1OC`, the IC50 was > 10 µM (inactive).

With `CCOc1ccc(CCNC(=O)CCc2nc(-c3ccc(OC)cc3)no2)cc1OCC` the IC50 was > 10 µM (inactive).

With `CCn1c(C(=O)NCc2ccc3c(c2)OCO3)cc2sccc21` the IC50 was > 10 µM (inactive).

`CCn1c(C(=O)Nc2ccc(OC)c(OC)c2)cc2sccc21` was tested, and the IC50 was > 10 µM (inactive).

With `CCn1c(C(=O)Nc2ccc(OC)c(OC)c2)cc2ccsc21` the IC50 was > 10 µM (inactive).

With `CCOc1ccc(CCNC(=O)COC(=O)c2cc(OC)cc(OC)c2)cc1OCC` the IC50 was > 10 µM (inactive).

`CCOc1ccc(CCNC(=O)c2cc3sccc3n2CC)cc1OCC` was tested, and the IC50 was > 10 µM (inactive).

In the case of `CCOc1ccc(CCNC(=O)COC(=O)c2ccc(OC)c(OC)c2OC)cc1OCC`, the IC50 was > 10 µM (inactive).

In the case of `CCOc1ccc(CCNC(=O)c2cc3sccc3n2CC)cc1OC`, the IC50 was > 10 µM (inactive).

With `CCOc1ccc(CCNC(=O)c2cc3ccsc3n2C)cc1OCC` the IC50 was > 10 µM (inactive).

With `CCn1c(C(=O)Nc2ccc3c(c2)OCO3)cc2sccc21` the IC50 was > 10 µM (inactive).

For `CCOc1ccc(CCNC(=O)CCc2nnc3ccc(N4CCCC4)nn23)cc1OCC`, the IC50 was > 10 µM (inactive).

With `Cn1c(=O)cc(SCC(=O)NCc2ccc3c(c2)OCO3)c2ccccc21` the IC50 was > 10 µM (inactive).

For `CCOc1cc(CCNC(=O)c2cc(-c3ccccc3)c(N3CCOCC3)s2)ccc1OC`, the IC50 was > 10 µM (inactive).

With `CCOc1ccc(CCNC(=O)Cn2nc(C)c3c(C)n(-c4ccccc4)nc3c2=O)cc1OCC` the IC50 was > 10 µM (inactive).

In the case of `CCn1c(C(=O)NCCc2ccc(OC)c(OC)c2)cc2ccsc21`, the IC50 was > 10 µM (inactive).

With `CCOc1ccc(CCNC(=O)CSc2cc(=O)n(C)c3ccccc23)cc1OC` the IC50 was > 10 µM (inactive).

For `CCOc1ccc(CCNC(=O)CCC(=O)N2CCOc3ccc(C)cc32)cc1OCC`, the IC50 was > 10 µM (inactive).

For `CCOc1ccc(CCNC(=O)c2cc(-c3ccccc3)c(N3CCOCC3)s2)cc1OC`, the IC50 was > 10 µM (inactive).

With `CCOc1ccc(CCNC(=O)CSc2cc(=O)n(C)c3cc(Cl)ccc23)cc1OCC` the IC50 was > 10 µM (inactive).

For `CCOc1ccc(CCNC(=O)CCC(=O)N2CCSc3ccccc32)cc1OCC`, the IC50 was > 10 µM (inactive).

In the case of `CCOc1ccc(CCNC(=O)CN2C(=O)c3cccnc3Oc3ccc(C)cc32)cc1OCC`, the IC50 was > 10 µM (inactive).

For `O=C(NCCc1ccc2c(c1)OCO2)c1cc(-c2ccccc2)c(N2CCOCC2)s1`, the IC50 was > 10 µM (inactive).

With `COc1ccc(CCNC(=O)c2cc3sccc3n2C)cc1OC` the IC50 was > 10 µM (inactive).
